# According to patent US8133864B2, “PAR-2 agonist” (Kowa Company, Ltd., priority 2005, dated 2012):
# Where a name gives a salt, the structure may show the parent alone.
# Legend:
# PAR-2 [1] = target: T1, PAR-2 (Homo sapiens, UniProt P55085); assay: PAR-2 agonist-mediated intracellular calcium dynamics assay in HCT-15 cells (modified method of Howthorne et al.); format: cell-based; parameters: HCT-15 cells, human colorectal cancer cell lines endogenously expressing high level of PAR-2; endogenous in cells; host or cells: HCT-15 human colorectal cancer cells; conditions: for EC50: HCT-15 cells endogenously expressing PAR-2, Ca2+ sensitive fluorescent dye, 2.5 mM probenecid, serum-free RPMI
# T1 sequence (P55085 26-397): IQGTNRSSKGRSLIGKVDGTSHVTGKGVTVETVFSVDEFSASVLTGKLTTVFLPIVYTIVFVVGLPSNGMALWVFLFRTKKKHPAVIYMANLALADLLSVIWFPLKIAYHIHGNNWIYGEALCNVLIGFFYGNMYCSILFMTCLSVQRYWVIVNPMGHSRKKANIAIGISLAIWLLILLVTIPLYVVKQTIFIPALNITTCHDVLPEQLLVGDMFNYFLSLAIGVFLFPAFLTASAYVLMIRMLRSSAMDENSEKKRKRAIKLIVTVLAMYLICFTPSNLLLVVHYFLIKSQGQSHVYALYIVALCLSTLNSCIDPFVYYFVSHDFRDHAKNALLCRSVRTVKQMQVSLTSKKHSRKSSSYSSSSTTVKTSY
# Description: The PAR-2 activation of peptide derivatives represented by the general formula (1) can be tested by various known methods. For example, the method of Hollenberg (Hollenberg, M.D., et al., Can. J. Physiol. Pharmacol., 75, 832-841(1997)), the method of Kawabata et al. (Kawabata, A., et al., J. Pharmacol. Exp. Ther., 288, 358-370(1999)), the method of Howthorne et al. (Howthorne et al., A High-Throughput Microtiter Plate-Based Calcium Assay for the Study of Protease-Activated Receptor 2 Activation, Analytical Biochemistry 290, 378-379(2001)), and the like can be used. The present inventors tested PAR-2 activation potency by using the modified method of Howthorne et al. More specifically the method is for assaying calcium dynamics in a cell expressing human PAR-2 intracellularly. In this assay, PAR-2 agonist mediated calcium dynamics (concentration variability) in a cell is measured by using a multiple-well plate reader wherein the cell has Ca^2+ sensitive fluorescent dye introduced and stimulated by PAR-2 agonist under probenecid, which inhibits anion-exchange transporter, present. HCT-15 cells, human colorectal cancer cell lines endogenously expressing high level of PAR-2, were plated in a black-wall clear-bottom 96 well plate. Subconfluent cells were labeled with Ca^2+ sensitive fluorescent dye (Calcium Assay Reagent, Molecular Devices) in a RPMI culture medium in the presence of 2.5 mM probenecid absence of serum, and incubated for 1 hour at 37 ° C. Thereafter, the cells were stimulated with test compounds at various concentrations, and fluorescence change was measured using a scanning fluorometer (Flex Station, Molecular Devices) using excitation wavelength of 485 nm and fluorescence wavelength of 525 nm (cut-off wavelength of 515 nm). As a comparative compound, SLIGKV(SEQ ID: NO 1) —OH which is known as PAR-2 activated peptide was used. The results are shown in TAB.1.
# PAR-2 [2] = target: T1, PAR-2; conditions: relative to TRAP (tethered receptor agonist peptide); cited from earlier work
"agonist activity against PAR-2 (result in words; comparator not given, presumably the comparison compound) (PAR-2 [1]; HCT-15 cells, calcium assay)",Compound,EC50 (PAR-2 [1]),intensity to activate PAR-2 relative to TRAP (PAR-2 [2])
higher agonist activity,"O=C(CNC(=O)[C@H](CC1CCCCC1)NC(=O)c1ccco1)NCC(=O)N[C@@H](CCCN1CCCCC1)C(=O)NCc1ccccc1 [Example 1, (S)-2-[(2-furoyl)-β-cyclohexyl-L-alanyl-glycyl-glycyl-amino]-5-(1-piperidinyl)pentanoic acid benzyl amide]",2.3 ± 0.3 µM,–
–,"O=C(CNC(=O)[C@H](CC1CCCCC1)NC(=O)c1ccco1)NCC(=O)N[C@@H](CCCN1CCCCC1)C(=O)NCCN1CCCCC1 [Example 2, (S)-2-[(2-furoyl)-β-cyclohexyl-L-alanyl-glycyl-glycyl-amino]-5-(1-piperidinyl)pentanoic acid N-[2-(1-piperidinyl)ethyl] amide dihydrochloride]",4.1 ± 0.4 µM,–
–,Nα-benzoyl-Arg (NO2)-Leu-NH2,–,about 1/100
